We go through 5 compounds from publication PMC10042540, “Targeting oncogenic KRasG13C with nucleotide-based covalent inhibitors” (eLife, 2023).

One may read the Kd as the concentration at which binding is half-saturated.

Common to all, as to type: binding
The test system of assay [1] is nucleotide-free KRas. Description: Stopped-flow competition with mantdGDP (association kinetics). The conditions noted are these: for kon: 25 °C, 1 µM KRas, 2 µM mantdGDP, 1, 2, 6 µM competing nucleotide, global fit; for koff: calculated kinetic parameter. Here is the method:
The association kinetics of the nucleotide analogues were analyzed with a SX-20 stopped-flow instrument (Applied Photophysics) at 25 °C in a buffer consisting of 25 mM HEPES (pH 7.5), 100 mM NaCl, 1 mM MgCl2, and 0.5 mM TCEP. 1 µM of nucleotide-free KRas ([Müller et al., 2017]) in one syringe was mixed rapidly with 2 µM mantdGDP in the other. In subsequent experiments, the second syringe contained competing nucleotides (1, 2, and 6 µM) in addition to 2 µM mantdGDP. The resulting progress curves were globally fit using KinTek Explorer to obtain the corresponding association rate constants as previously described (Table 1—source data 1, Table 1—source data 2 [Johnson et al., 2009]).

The test system of assay [2] is T1, KRasG13C1-169 (Cys-light).
T1 construct: KRasWT1-169 and KRasG13C1-169 Cys-light (C51S C80L C118S) were expressed in BL21 (DE3) E. coli; hexahistidine (TEV site) (N, cleaved yes); made in house; host or cells: E. coli BL21 (DE3)
Description: Covalent modification of protein controlled by ESI-MS. Here is the method: After incubation at room temperature for the appropriate time, the modification of the protein was controlled by ESI-MS. For covalent modification of full-length KRasG13C, a nucleotide exchange with a 10-fold excess of the acryl-bearing nucleotides at pH 7.5 was first performed following incubation at room temperature for 24 h at pH 9.5 for covalent protein modification. Covalent protein modification was controlled by ESI-MS. The MS spectra were recorded on a VelosPro IonTrap (Thermo Scientific) with an EC 50/3 Nucleodur C18 1.8 μm column (Macherey and Nagel) and a gradient of the mobile phase A (0.1% formic acid in water) to B (0.1% formic acid in acetonitrile).

Assay [3] concerns the target KRasWT1-169 (Homo sapiens, UniProt P01116). Description: HPLC-based approach for determination of affinities relative to GDP. The conditions noted are these: for KA: KA = KA(GDP) x KrelA, GDP from KA = 1/KD; for relative association constant KrelA: relative to GDP. The protocol: The relative affinities of the nucleotide analogues were measured using an HPLC-based approach. 50 μM of […] was mixed with 50 μM of the acetamide derivatives and incubated either for 7 days at room temperature in the absence of EDTA, for 24 hr at 4 °C in the presence of 10 mM EDTA, or for 1 hr at room temperature in the presence of SOS in a buffer consisting of 20 mM HEPES (pH 7.5), 100 mM NaCl, 2 mM MgCl2, 1 mM TCEP and 5% glycerol. After incubation, the Ras proteins were washed five times with buffer (15 mL) using centrifugal filter devices to remove any unbound nucleotide, concentrated and analysed by isocratic HPLC runs. The resulting curves were analysed by integrating the corresponding peaks for GDP and the guanosine nucleotide analogues after distinct time points using the Agilent ChemStation Software (Table 1-source data 3, Table 1-source data 4). Based on the percentage distribution determined by the HPLC assay, the relative association constants (KrelA) for […] and bdaGDP could subsequently be calculated. In contrast, the superposition of the GDP signal prevented an exact determination of the relative association constant for […] values of 0.34 and 0.28 relative to GDP were determined for […] and bdaGDP, respectively. […] By rearranging the equilibrium reactions listed in (Equation 1a) and (Equation 1b), the following relationships are obtained for KGDP (Equation 2a) and […] Assuming that the concentration for aGDP used in the HPLC assay is 50 μM, the following GDP concentrations for […] (Equation 3a) and bdaGDP (Equation 3b) can be determined at time t=0 hr using the percentages determined in Table 1-source data 3:(3a) GDPtotal=%GDP/%[…]=37%/63%×50μM=29.4μM (3b) GDPtotal=%GDP/%bdaGDP=43%/57%×50μM=37.7μM The concentrations of the components listed in equation (Equation 2b) can be calculated as follows for […] (Equation 4a, Equation 4b, Equation 4c, Equation 4d) and bdaGDP (Equation 5a, Equation 5b, Equation 5c, Equation 5d) by considering the total GDP concentrations calculated previously:(4[…]]=47/100×29.4μM=13.8μM (4b) [Ras:GDP]=53/100×29.4μM=15.6μ[…]]=50μM-13.8μM=36.2μM (4d) [GDP]=29.4μM-15.6μM=13.8μM (5a) [Ras:bdaGDP]=39.5/100×37.7μM=14.9μM (5b) [Ras:GDP]=60.5/100×37.7μM=22.8μM (5c) [bdaGDP]=50μM-14.9μM=35.1μM (5d) [GDP]=37.7μM-22.8μM=14.9μM The relative association constant KrelA can be calculated by the following formula (Equation 6):(6) […] By inserting the concentrations of each component determined from (Equation 4a, Equation 4b, Equation 4c, Equation 4d) and (Equation 5a, Equation 5b, Equation 5c, Equation 5d) into (Equation 6), the relative association constants KrelA for […] (Equation 10a) and […]=1/0.136pM^-1=7.4pM (10b) KDbdaGDP=1/0.112pM^-1=8.9pM

Where [4] appears, read: -EDTA, 7 days at room temperature.
[5] abbreviates: worked calculation KD = 1/KA, Equation 10a/10b.

KRasWT1-169, sequence (P01116 1-169): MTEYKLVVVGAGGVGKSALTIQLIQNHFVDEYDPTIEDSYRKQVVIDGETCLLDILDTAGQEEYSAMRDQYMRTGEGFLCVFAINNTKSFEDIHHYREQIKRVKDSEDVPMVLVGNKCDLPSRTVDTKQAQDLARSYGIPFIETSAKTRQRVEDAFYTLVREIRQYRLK

As for `Nc1nc2c(ncn2[C@@H]2O[C@H](COP(=O)(O)OP(=O)(O)OP(=O)(O)O)[C@@H](O)[C@H]2O)c(=O)[nH]1` [GTP, reference compound], in assay [1], the kon was found to be 5.23 µM^–1s^–1.
Turning to `C=CC(=O)NCCCCNC(=O)O[C@H]1[C@@H](O)[C@H](n2cnc3c(=O)[nH]c(N)nc32)O[C@@H]1COP(=O)(O)OP(=O)(O)O` [acryl-bdaGDP], the “covalent labelling of KRasG13C1-169 (Cys-light)” value in assay [2] (pH 7.5, after 24 hr) was “slight labelling”; in assay [2] (pH 9.5, after 24 hr), about 100%.
On to `C=CC(=O)NCCCNC(=O)O[C@H]1[C@@H](O)[C@H](n2cnc3c(=O)[nH]c(N)nc32)O[C@@H]1COP(=O)(O)OP(=O)(O)O` [acryl-pdaGDP], for which the “covalent labelling of KRasG13C1-169 (Cys-light)” value in assay [2] (pH 7.5, after 24 hr) was “slight labelling”; in assay [2] (pH 9.5, after 24 hr), about 100%.
In assay [3] (+SOS, 1 hr at room temperature), `C=CC(=O)NCCCCNC(=O)O[C@H]1[C@@H](O)[C@H](n2cnc3c(=O)[nH]c(N)nc32)O[C@@H]1COP(=O)(O)OP(=O)(O)O` [bdaGDP] displayed a Kd of 10 pM. The same compound returned a Kd in assay [3] (setting [4]) of 10 pM. In addition, in assay [3], the KA is 0.112 pM⁻¹ and the “relative association constant KrelA” value was 0.28. For the same compound, the dissociation constant Kd in assay [3] (setting [5]) is 8.9 pM. For the same compound, in assay [1], the kon was 3.12 µM^–1s^–1 and the koff is given as 3.0x10^–5 s^–1.
Compound `C=CC(=O)NCCCNC(=O)O[C@H]1[C@@H](O)[C@H](n2cnc3c(=O)[nH]c(N)nc32)O[C@@H]1COP(=O)(O)OP(=O)(O)O` [pdaGDP] came in with a Kd in assay [3] (+SOS, 1 hr at room temperature) of 10.4 pM. Moreover, in assay [3] (setting [4]), binding was put at a Kd of 8 pM. Besides, in assay [3], the KA was determined as 0.136 pM⁻¹ and the “relative association constant KrelA” value is recorded as 0.34. Besides, the equilibrium dissociation constant (Kd) in assay [3] (setting [5]) is 7.4 pM. For the same compound, in assay [1], the kon is given as 3.34 µM^–1s^–1 and the koff is listed as 2.9x10^–5 s^–1.
